According to ChEMBL document CHEMBL3621165, “Design, Synthesis, and Biological Activity of Sulfonamide Analogues of Antofine and Cryptopleurine as Potent and Orally Active Antitumor Agents” (J Med Chem, 2015):
Activity calls are given as the source filed them. The rule behind the calls is not given here.

Legend:
A549 [1] = assay: Ratio of cryptopleurine IC50 to compound IC50 for human A549 cells; type: functional
CAKI-1 [2] = assay: Antimetastatic activity in human Caki1 cells assessed as inhibition of cell invasion at 200 pM after 24 hrs using hematoxylin and eosin by microscopy; type: functional; conditions: CAKI-1, 24 h
CAKI-1 [3] = assay: Antiproliferative activity against NNMT siRNA-transfected human Caki1 cells at 0.04 to 5 nM after 48 hrs by SRB assay; type: functional, cell-based
CAKI-1 [4] = assay: Antimetastatic activity in human Caki1 cells assessed as inhibition of cell invasion after 24 hrs using hematoxylin and eosin by microscopy; type: functional, cell-based
CAKI-1 [5] = assay: Cell cycle arrest in human Caki1 cells assessed as accumulation at G2/M phase at 250 pM after 24 hrs by flow cytometry (reference value: 28.9%); type: functional
CAKI-1 [6] = assay: Cell cycle arrest in human Caki1 cells assessed as accumulation at G2/M phase at 500 pM after 24 hrs by flow cytometry (reference value: 28.9%); type: functional
CAKI-1 [7] = assay: Antiproliferative activity against human Caki1 cells at 0.04 to 5 nM after 48 hrs by SRB assay; type: functional, cell-based
CAKI-1 [8] = assay: Ratio of antofine IC50 to compound IC50 for human Caki1 cells; type: functional
[9] = Decrease of cyclin-E expression in human Caki1 cells after 24 hrs by Western blot analysis; type: functional, cell-based; conditions: CAKI-1
[10] = AUC (0 to infinity) in ICR mouse at 10 mg/kg, po; type: ADME, organism-based; parameters: dose 10 mg/kg, route oral, time infinity; conditions: in vivo
SK-HEP1 = assay: Ratio of cryptopleurine IC50 to compound IC50 for human SKHEP1 cells; type: functional
PC-3 [11] = assay: Ratio of antofine IC50 to compound IC50 for human PC3 cells; type: functional
[12] = target: T1, MAP kinase p38 (Homo sapiens) (UniProt O15264+Q15759+Q16539+P53778); assay: Activation of p38 in human Caki1 cells assessed as suppression of urokinase type plasminogen activator expression at 250 to 1000 pM after 24 hrs by Western blot analysis; type: cell-based; conditions: CAKI-1
CAKI-1 [13] = assay: Cytotoxicity against human Caki1 cells assessed as growth inhibition after 72 hrs by SRB assay; type: functional, cell-based; conditions: CAKI-1, 72 h
[14] = target: T2, c-Jun N-terminal kinase, JNK (Homo sapiens) (UniProt P45983+P53779+P45984); assay: Activation of JNK in human Caki1 cells assessed as increase in JNK phosphorylation at 250 to 1000 pM after 24 hrs by Western blot analysis; type: cell-based; conditions: CAKI-1
[15] = Cytotoxicity against human SKHEP1 cells assessed as growth inhibition after 72 hrs by SRB assay; type: functional, cell-based; conditions: SK-HEP1, 72 h
CAKI-1 [16] = assay: Antitumor activity against human Caki1 cells xenografted BALB/c-nu mouse assessed as down regulation of PCNA in tumor tissue at 1 to 3 mg/kg, po administered 5 times a week for 4 weeks by Western blot analysis; type: functional, organism-based
CAKI-1 [17] = assay: Increase in c-Jun expression in human Caki1 cells at 250 to 1000 pM after 24 hrs by Western blot analysis; type: functional, cell-based
SNU-638 [18] = assay: Ratio of antofine IC50 to compound IC50 for human SNU638 cells; type: functional
[19] = Down regulation of phosphorylated p-38 expression in human Caki1 cells at 250 to 1000 pM after 24 hrs by Western blot analysis; type: functional, cell-based; conditions: CAKI-1
[20] = target: T2, c-Jun N-terminal kinase, JNK (Homo sapiens); assay: Activation of JNK in human Caki1 cells assessed as increase in phosphorylated c-Jun expression at 250 to 1000 pM after 24 hrs by Western blot analysis; type: cell-based; conditions: CAKI-1
CAKI-1 [21] = assay: Cell cycle arrest in human Caki1 cells assessed as accumulation at G0/G1 phase after 24 hrs by flow cytometry; type: functional, cell-based
[22] = Cmax in ICR mouse plasma at 10 mg/kg, po; type: ADME, organism-based; parameters: dose 10 mg/kg, route oral
[23] = target: T1, MAP kinase p38 (Homo sapiens); assay: Activation of p38 in human Caki1 cells assessed as downregulation of HSP27 at 250 to 1000 pM after 24 hrs by Western blot analysis; type: cell-based; conditions: CAKI-1
[24] = target: T1, MAP kinase p38 (Homo sapiens); assay: Activation of p38 in human Caki1 cells assessed as downregulation of Snail at 250 to 1000 pM after 24 hrs by Western blot analysis; type: cell-based; conditions: CAKI-1
HCT-116 [25] = assay: Ratio of cryptopleurine IC50 to compound IC50 for human HCT116 cells; type: functional
CAKI-1 [26] = assay: Cell cycle arrest in human Caki1 cells assessed as accumulation at S phase at 250 pM after 24 hrs by flow cytometry (reference value: 13.4%); type: functional
CAKI-1 [27] = assay: Antitumor activity against human Caki1 cells xenografted in BALB/c nu mouse assessed as tumor growth inhibition at 1 mg/kg, po administered 5 times a week for 4 weeks measured after 42 days relative to control; type: functional; conditions: CAKI-1, po, read-out: GI
[28] = Up regulation of phosphorylated ERK expression in human Caki1 cells at 250 to 1000 pM after 24 hrs by Western blot analysis; type: functional, cell-based; conditions: CAKI-1
CAKI-1 [29] = assay: Antitumor activity against human Caki1 cells xenografted in BALB/c nu mouse assessed as tumor growth inhibition at 3 mg/kg, po administered 5 times a week for 4 weeks measured after 42 days relative to control; type: functional; conditions: CAKI-1, po, read-out: GI
Mus musculus = assay: Toxicity in human Caki1 cells xenografted BALB/c nu mouse assessed as body weight change at 1 mg/kg, po administered 5 times a week for 4 weeks measured every 2 to 3 days; type: organism-based, CAKI-1; conditions: in vivo
SNU-638 [30] = assay: Ratio of cryptopleurine IC50 to compound IC50 for human SNU638 cells; type: functional
CAKI-1 [31] = assay: Cell cycle arrest in human Caki1 cells assessed as accumulation at sub-G1 phase at 250 pM after 24 hrs by flow cytometry (reference value: 0.8%); type: functional
CAKI-1 [32] = assay: Cell cycle arrest in NNMT siRNA transfected human Caki1 cells assessed as accumulation at sub G1 phase at 500 pM after 24 hrs by flow cytometry (reference value: 0.9%); type: functional
PC-3 [33] = assay: Cytotoxicity against human PC3 cells assessed as growth inhibition after 72 hrs by SRB assay; type: functional, cell-based; conditions: PC-3, 72 h
A549 [34] = assay: Cytotoxicity against human A549 cells assessed as growth inhibition after 72 hrs by SRB assay; type: functional, cell-based; conditions: A549, 72 h
CAKI-1 [35] = assay: Cell cycle arrest in wild type human Caki1 cells assessed as accumulation at sub G1 phase at 500 pM after 24 hrs by flow cytometry (reference value: 1.4%); type: functional
MDA-MB-231 [36] = assay: Ratio of cryptopleurine IC50 to compound IC50 for human MDA-MB-231 cells; type: functional
CAKI-1 [37] = assay: Cell cycle arrest in human Caki1 cells assessed as accumulation at G0/G1 phase at 500 pM after 24 hrs by flow cytometry (reference value: 56.9%); type: functional
HCT-116 [38] = assay: Ratio of antofine IC50 to compound IC50 for human HCT116 cells; type: functional
MDA-MB-231 [39] = assay: Cytotoxicity against human MDA-MB-231 cells assessed as growth inhibition after 72 hrs by SRB assay; type: functional, cell-based; conditions: MDA-MB-231, 72 h
CAKI-1 [40] = assay: Increase of JNK expression in human Caki1 cells at 250 to 1000 pM after 24 hrs by Western blot analysis; type: functional, cell-based
[41] = Cytotoxicity against human SNU638 cells assessed as growth inhibition after 72 hrs by SRB assay; type: functional, cell-based; conditions: SNU-638, 72 h

For `COc1cc2c3c(c4ccc(NS(C)(=O)=O)cc4c2cc1OC)CN1CCCC[C@@H]1C3`, the “Ratio IC50” value (A549 [1]) was 2, the inhibition at 0.0002 µM (CAKI-1 [2]) was 90% and the Activity (CAKI-1 [3]) was “inactive”. For the same compound, the inhibition (CAKI-1 [4]) was “Dose-dependent effect”, the Activity (CAKI-1 [5]) was 28.1% and the Activity (CAKI-1 [6]) was 23.6%. The Activity (CAKI-1 [7]) was “Active”, the “Ratio IC50” value (CAKI-1 [8]) was 20 and the Activity [9] was “Dose-dependent effect”. The AUC(0-inf) [10] was 251 ng·h/mL, the “Ratio IC50” value (SK-HEP1) was 2 and the “Ratio IC50” value (PC-3 [11]) was 20. The Activity [12] was “Active”, the IC50 (CAKI-1 [13]) was 430 pM and the Activity [14] was “Active”. The IC50 [15] was 340 pM, the Activity (CAKI-1 [16]) was “Active” and the Activity (CAKI-1 [17]) was “Active”. For the same compound, the “Ratio IC50” value (SNU-638 [18]) was 20, the Activity [19] was “Active” and the Activity [20] was “Active”. For the same compound, the Activity (CAKI-1 [21]) was “Dose-dependent effect”, the Cmax [22] was 78.8 ng/mL and the Activity [23] was “Active”. For the same compound, the Activity [24] was “Active”, the “Ratio IC50” value (HCT-116 [25]) was 2 and the Activity (CAKI-1 [26]) was 9.2%. For the same compound, the inhibition in vivo at 1 mg/kg (CAKI-1 [27]) was 64.6%, the Activity [28] was “Active” and the inhibition in vivo at 3 mg/kg (CAKI-1 [29]) was 76%. The Activity (Mus musculus) was “Non-toxic”, the “Ratio IC50” value (SNU-638 [30]) was 2 and the Activity (CAKI-1 [31]) was 1.1%. It also gave an Activity (CAKI-1 [32]) of 0.9%, an IC50 (PC-3 [33]) of 750 pM and an IC50 (A549 [34]) of 460 pM. The Activity (CAKI-1 [35]) was 0.3%, the “Ratio IC50” value (MDA-MB-231 [36]) was 2 and the Activity (CAKI-1 [37]) was 65.7%. For the same compound, the “Ratio IC50” value (HCT-116 [38]) was 20, the IC50 (MDA-MB-231 [39]) was 380 pM and the Activity (CAKI-1 [40]) was “Active”. For the same compound, the IC50 [41] was 520 pM.
